Results published in US12479830B2, “Homopiperazinyl and homopiperidinyl quinazolin-4(3H)-one derivatives having multimodal activity against pain” (ESTEVE PHARMACEUTICALS, S.A., priority 2019, dated 2025).

Legend:
[1] = molecular target: Human α2δ-1 subunit of Cav2.2 calcium channel (Homo sapiens, UniProt P54289); assay: Human α2δ-1 subunit of Cav2.2 calcium channel assay ([3H]-gabapentin binding); settings: binding to the α2δ-1 subunit of voltage-gated calcium channels, expressed as Ki class; + also covers inhibition between 1% and 50%
Procedure, shortened: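 Affinity (Ki, five concentrations) or % inhibition at 1 or 10 μM, from displacement of 15 nM [3H]-gabapentin on human α2δ-1 membranes. Incubation 60 min, 27° C., Hepes-KOH 10 mM pH 7.4; 10 μM pregabalin defined non-specific binding; bound radioactivity counted after GF/C filtration.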

Human σ1 receptor = molecular target: T1, Human σ1 receptor (Homo sapiens, UniProt Q99720); assay: Human σ1 receptor radioligand assay ([3H](+)-pentazocine binding); settings: binding to the σ1 receptor, expressed as Ki class; + also covers inhibition between 1% and 50%
T1 construct: expressed in transfected cells; host or cells: HEK-293
Procedure, shortened: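 Ki was derived from five test concentrations, or % inhibition was measured at a single 1 or 10 μM dose, against 5 nM [3H](+)-pentazocine. Incubation was 120 min at 37° C in 50 mM Tris-HCl pH 8 with 7 μg HEK-293 membranes, and 10 μM haloperidol set non-specific binding. Bound radioactivity was counted after filtration.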

T1 sequence (Q99720 whole entry): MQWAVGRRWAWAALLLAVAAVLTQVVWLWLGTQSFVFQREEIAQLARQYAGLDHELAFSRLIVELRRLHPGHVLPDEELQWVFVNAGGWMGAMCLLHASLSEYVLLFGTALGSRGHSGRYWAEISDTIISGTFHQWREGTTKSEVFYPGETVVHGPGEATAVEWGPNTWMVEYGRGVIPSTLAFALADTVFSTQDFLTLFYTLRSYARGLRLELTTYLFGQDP
Human α2δ-1 subunit of Cav2.2 calcium channel, sequence (P54289 25-1103): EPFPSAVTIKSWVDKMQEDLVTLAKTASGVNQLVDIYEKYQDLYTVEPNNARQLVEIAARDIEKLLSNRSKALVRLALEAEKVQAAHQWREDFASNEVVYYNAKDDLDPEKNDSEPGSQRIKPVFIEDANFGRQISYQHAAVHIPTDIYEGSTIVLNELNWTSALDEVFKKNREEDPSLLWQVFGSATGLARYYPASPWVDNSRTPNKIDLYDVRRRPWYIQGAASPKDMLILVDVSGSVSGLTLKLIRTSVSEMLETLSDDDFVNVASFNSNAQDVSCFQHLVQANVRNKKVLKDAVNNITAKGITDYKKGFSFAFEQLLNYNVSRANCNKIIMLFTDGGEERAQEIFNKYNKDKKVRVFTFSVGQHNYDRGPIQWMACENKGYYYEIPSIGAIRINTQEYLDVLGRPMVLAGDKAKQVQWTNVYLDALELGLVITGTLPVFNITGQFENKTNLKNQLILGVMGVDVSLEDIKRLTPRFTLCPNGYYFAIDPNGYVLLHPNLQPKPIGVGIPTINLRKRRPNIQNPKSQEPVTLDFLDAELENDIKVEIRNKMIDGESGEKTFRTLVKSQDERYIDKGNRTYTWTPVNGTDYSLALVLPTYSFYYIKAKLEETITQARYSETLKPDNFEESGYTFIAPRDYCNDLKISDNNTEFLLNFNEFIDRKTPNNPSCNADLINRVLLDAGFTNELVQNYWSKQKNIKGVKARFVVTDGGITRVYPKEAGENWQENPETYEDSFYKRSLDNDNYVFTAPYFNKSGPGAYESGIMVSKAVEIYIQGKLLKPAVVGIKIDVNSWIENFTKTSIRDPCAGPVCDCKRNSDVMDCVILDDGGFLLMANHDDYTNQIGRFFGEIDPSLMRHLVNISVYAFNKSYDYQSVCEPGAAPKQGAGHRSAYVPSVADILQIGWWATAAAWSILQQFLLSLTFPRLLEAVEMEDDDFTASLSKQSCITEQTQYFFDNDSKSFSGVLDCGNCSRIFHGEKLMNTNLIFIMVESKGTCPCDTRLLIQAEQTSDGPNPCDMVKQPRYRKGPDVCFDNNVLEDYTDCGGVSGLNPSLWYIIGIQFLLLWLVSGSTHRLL

## CCC[C@@H](c1nc2ncc(Br)cc2c(=O)n1CC)N1CCN(C)C[C@@H](C)C1 [Example 189, 6-bromo-2-((S)-1-((R)-4,6-dimethyl-1,4-diazepan-1-yl)butyl)-3-ethylpyrido[2,3-d]pyrimidin-4(3H)-one]
[1]
  Ki: > 5 µM
Human σ1 receptor
  Ki: > 1 µM

## CCCC(c1nc2nc(C(F)(F)F)ccc2c(=O)n1CC)N1CCCN(C)CC1 (stereo not shown) [Example 190, 3-ethyl-2-(1-(4-methyl-1,4-diazepan-1-yl)butyl)-7-(trifluoromethyl)pyrido[2,3-d]pyrimidin-4(3H)-one]
[1]
  Ki: 0.5 to 5 µM
Human σ1 receptor
  Ki: > 1 µM

## CCCC(c1nc2cnc(OC)cc2c(=O)n1CC)N1CCCN(C)CC1 (stereo not shown) [Example 191, 3-ethyl-6-methoxy-2-(1-(4-methyl-1,4-diazepan-1-yl)butyl)pyrido[3,4-d]pyrimidin-4(3H)-one]
[1]
  Ki: < 0.5 µM
Human σ1 receptor
  Ki: > 1 µM

## CCCC(c1nc2cnc(C(F)(F)F)cc2c(=O)n1CC)N1CCCN(C)CC1 (stereo not shown) [Example 192, 3-ethyl-2-(1-(4-methyl-1,4-diazepan-1-yl)butyl)-6-(trifluoromethyl)pyrido[3,4-d]pyrimidin-4(3H)-one]
[1]
  Ki: < 0.5 µM
Human σ1 receptor
  Ki: > 1 µM

## CCC[C@@H](c1nc2ncc(F)cc2c(=O)n1CC1CC1)N1CCN[C@H](C)CC1 [Example 193, 3-(cyclopropylmethyl)-6-fluoro-2-((S)-1-((R)-5-methyl-1,4-diazepan-1-yl)butyl)pyrido[2,3-d]pyrimidin-4(3H)-one]
[1]
  Ki: > 5 µM
Human σ1 receptor
  Ki: > 1 µM

## CCC[C@H](c1nc2ncc(F)cc2c(=O)n1CC1CC1)N1CCN[C@@H](C)CC1 [Example 195, 3-(cyclopropylmethyl)-6-fluoro-2-((R)-1-((S)-5-methyl-1,4-diazepan-1-yl)butyl)pyrido[2,3-d]pyrimidin-4(3H)-one]
[1]
  Ki: < 0.5 µM
Human σ1 receptor
  Ki: > 1 µM

## CCC[C@H](c1nc2ncc(F)cc2c(=O)n1CC1CC1)N1CCN[C@H](C)CC1 [Example 196, 3-(cyclopropylmethyl)-6-fluoro-2-((R)-1-((R)-5-methyl-1,4-diazepan-1-yl)butyl)pyrido[2,3-d]pyrimidin-4(3H)-one]
[1]
  Ki: < 0.5 µM
Human σ1 receptor
  Ki: > 1 µM

## CCC[C@H](c1nc2ncc(Br)cc2c(=O)n1CC)N1CCNC[C@H](C)C1 [Example 197, 6-bormo-3-ethyl-2-((R)-1-((S)-6-methyl-1,4-diazepan-1-yl)butyl)pyrido[2,3-d]pyrimidin-4(3H)-one]
[1]
  Ki: < 0.5 µM
Human σ1 receptor
  Ki: > 1 µM

## CCC[C@@H](c1nc2ncc(Br)cc2c(=O)n1CC)N1CCNC[C@@H](C)C1 [Example 198, 6-bromo-3-ethyl-2-((S)-1-((R)-6-methyl-1,4-diazepan-1-yl)butyl)pyrido[2,3-d]pyrimidin-4(3H)-one]
[1]
  Ki: > 5 µM
Human σ1 receptor
  Ki: > 1 µM

## CCC[C@H](c1nc2ncc(Br)cc2c(=O)n1CC)N1CCNC[C@@H](C)C1 [Example 199, 6-bromo-3-ethyl-2-((R)-1-((R)-6-methyl-1,4-diazepan-1-yl)butyl)pyrido[2,3-d]pyrimidin-4(3H)-one]
[1]
  Ki: < 0.5 µM
Human σ1 receptor
  Ki: > 1 µM

## CCC[C@@H](c1nc2ncc(Br)cc2c(=O)n1CC)N1CCNC[C@H](C)C1 [Example 200, 6-bromo-3-ethyl-2-((S)-1-((S)-6-methyl-1,4-diazepan-1-yl)butyl)pyrido[2,3-d]pyrimidin-4(3H)-one]
[1]
  Ki: > 5 µM
Human σ1 receptor
  Ki: > 1 µM

## CCC[C@@H](c1nc2ncc(F)cc2c(=O)n1CC)N1CCCN(C)CC1 [Example 202, (S)-3-ethyl-6-fluoro-2-(1-(4-methyl-1,4-diazepan-1-yl)butyl)pyrido[2,3-d]pyrimidin-4(3H)-one]
[1]
  Ki: > 5 µM
Human σ1 receptor
  Ki: > 1 µM

## CCCC(c1nc2ccc(O)cc2c(=O)n1CC)N1CCCN(C)CC1 (stereo not shown) [Example 203, 3-Ethyl-6-hydroxy-2-(1-(4-methyl-1,4-diazepan-1-yl)butyl)quinazolin-4(3H)-one]
[1]
  Ki: < 0.5 µM
Human σ1 receptor
  Ki: > 1 µM

## CCCC(c1nc2ccc(-c3ccccc3)cc2c(=O)n1CC)N1CCCN(C)CC1 (stereo not shown) [Example 204, 3-Ethyl-2-(1-(4-methyl-1,4-diazepan-1-yl)butyl)-6-phenylquinazolin-4(3H)-one]
[1]
  Ki: < 0.5 µM
Human σ1 receptor
  Ki: > 1 µM

## CCCC(c1nc2ccc(CC)cc2c(=O)n1CC)N1CCCN(C)CC1 (stereo not shown) [Example 205, 3,6-diethyl-2-(1-(4-methyl-1,4-diazepan-1-yl)butyl)quinazolin-4(3H)-one]
[1]
  Ki: < 0.5 µM
Human σ1 receptor
  Ki: > 1 µM

## CCCC(c1nc2ccc(NC3CCN(C)CC3)cc2c(=O)n1CC)N1CCCN(C)CC1 (stereo not shown) [Example 206, 3-Ethyl-2-(1-(4-methyl-1,4-diazepan-1-yl)butyl)-6-((1-methylpiperidin-4-yl)amino)quinazolin-4(3H)-one]
[1]
  Ki: < 0.5 µM
Human σ1 receptor
  Ki: > 1 µM

## CCCC(c1nc2ccc(Cc3ccccc3)cc2c(=O)n1CC)N1CCCN(C)CC1 (stereo not shown) [Example 207, 6-Benzyl-3-ethyl-2-(1-(4-methyl-1,4-diazepan-1-yl)butyl)quinazolin-4(3H)-one]
[1]
  Ki: < 0.5 µM
Human σ1 receptor
  Ki: 0.5 to 1 µM

## CCCC(c1nc2ccc(Br)cc2c(=O)n1CC(=O)O)N1CCCN(C)CC1 (stereo not shown) [Example 208, 2-(6-Bromo-2-(1-(4-methyl-1,4-diazepan-1-yl)butyl)-4-oxoquinazolin-3(4H)-yl)acetic acid]
[1]
  Ki: > 5 µM
Human σ1 receptor
  Ki: > 1 µM

## CCC[C@H](c1nc2ccc(F)cc2c(=O)n1CC)N1CCCN(C)CC1 [Example 209, (R)-3-Ethyl-6-fluoro-2-(1-(4-methyl-1,4-diazepan-1-yl)butyl)quinazolin-4(3H)-one]
[1]
  Ki: < 0.5 µM
Human σ1 receptor
  Ki: < 0.5 µM

## CCC[C@H](c1nc2ccc(F)cc2c(=O)n1CC)N1CCCN(CC)CC1 [Example 210, (R)-3-ethyl-2-(1-(4-ethyl-1,4-diazepan-1-yl)butyl)-6-fluoroquinazolin-4(3H)-one]
[1]
  Ki: < 0.5 µM
Human σ1 receptor
  Ki: < 0.5 µM

## CCC[C@H](c1nc2ccc(F)cc2c(=O)n1CCC)N1CCCN(C)CC1 [Example 211, (R)-6-fluoro-2-(1-(4-methyl-1,4-diazepan-1-yl)butyl)-3-propylquinazolin-4(3H)-one]
[1]
  Ki: < 0.5 µM
Human σ1 receptor
  Ki: < 0.5 µM

## CCC[C@H](c1nc2ccc(F)cc2c(=O)n1CCC)N1CCCN(CC)CC1 [Example 212, (R)-2-(1-(4-ethyl-1,4-diazepan-1-yl)butyl)-6-fluoro-3-propylquinazolin-4(3H)-one]
[1]
  Ki: < 0.5 µM
Human σ1 receptor
  Ki: < 0.5 µM

## CCC[C@H](c1nc2ccc(I)cc2c(=O)n1CC)N1CCCN(C)CC1 [Example 213, (R)-3-ethyl-6-iodo-2-(1-(4-methyl-1,4-diazepan-1-yl)butyl)quinazolin-4(3H)-one]
[1]
  Ki: < 0.5 µM
Human σ1 receptor
  Ki: 0.5 to 1 µM

## CCC[C@H](c1nc2ccc(F)cc2c(=O)n1CC(C)C)N1CCCN(C)CC1 [Example 214, (R)-6-fluoro-3-isobutyl-2-(1-(4-methyl-1,4-diazepan-1-yl)butyl)quinazolin-4(3H)-one]
[1]
  Ki: < 0.5 µM
Human σ1 receptor
  Ki: < 0.5 µM

## CCC[C@H](c1nc2ccc(F)cc2c(=O)n1CC(C)C)N1CCCN(CC)CC1 [Example 215, (R)-2-(1-(4-ethyl-1,4-diazepan-1-yl)butyl)-6-fluoro-3-isobutylquinazolin-4(3H)-one]
[1]
  Ki: < 0.5 µM
Human σ1 receptor
  Ki: < 0.5 µM

## CCC[C@H](c1nc2ccc(F)cc2c(=O)n1C)N1CCCN(C)CC1 [Example 216, (R)-6-fluoro-3-methyl-2-(1-(4-methyl-1,4-diazepan-1-yl)butyl)quinazolin-4(3H)-one]
[1]
  Ki: 0.5 to 5 µM
Human σ1 receptor
  Ki: < 0.5 µM
